Activity calls are given as the source filed them.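 How the source made its calls: active means compounds giving half or more protection of infected cells from virus-caused growth loss, again on retest; inactive means the rest.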
Tested on: CEM cells HIV-1 protection, formazan growth assay
Test: NCI AIDS Antiviral Assay
Conditions: for IC50: measured here: growth of uninfected CEM cells
In short: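 Soluble formazan readout of cell growth; CEM cells ± HIV-1; 5 drug concs. ≥50% protection → retest; ≥50% again = moderately active; reproducible 100% = confirmed active.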

SMILES | EC50 | IC50 | outcome
N#CC(C#N)=C/C=C/c1ccccc1[N+](=O)[O-] | > 200 µM | 3.47 µM | –
CN(C)c1ccc(/C=C(\C#N)c2ccc(F)cc2F)cc1 | > 200 µM | 1.2 µM | –
CSC1(SC)CCCCCCCCCCC1 | > 200 µM | 158 µM | –
Cc1nc2c(=S)n(C)ncc2[nH]1 | 30.9 µM | > 100 µM | –
CCCCCC[P+](c1ccccc1)(c1ccccc1)c1ccccc1 | > 200 µM | 0.741 µM | –
S=C(N1CC1)N1CC1 | > 200 µM | 42.7 µM | –
COc1ccc2c(c1)CCc1cnc(=S)[nH]c1-2 | > 40.7 µM | > 40.7 µM | –
CCC1=[N+]([O-])C(C)(C)NC1(C)C | > 200 µM | > 200 µM | –
O=C(Nc1ccccc1C(=O)O)C(=Cc1ccccc1O)NC(=O)c1ccccc1 | > 200 µM | > 200 µM | –
O=C1CC(=O)NC(=NN2C(=O)CSC2C(=O)c2ccco2)N1 (configuration not stated) | 35.5 µM | 575 µM | –
COC(=O)C(=O)C(C(=O)OC)C(=O)C(=O)Nc1c(Cl)cc([N+](=O)[O-])cc1Cl (configuration not stated) | > 23.4 µM | > 23.4 µM | –
Cc1cccc(C)c1NC(=O)/C(Cc1nc2ccc([N+](=O)[O-])cc2[nH]c1=O)=N\NC(N)=O | > 417 µM | 126 µM | –
COCC1=C(O)C=C2Oc3c(C(C)=O)c(O)c(C)c(O)c3[C@@]2(C)C1=O | > 100 µM | 12 µM | –
N#CC1C(C#N)C2CC1C1N=NN(c3ccccc3)C21 (configuration not stated) | > 200 µM | > 200 µM | –
O=C1c2ccccc2C(=O)N1CCn1ccc(NC(c2ccccc2)(c2ccccc2)c2ccccc2)nc1=O | > 13.8 µM | > 13.8 µM | –
O=C(c1ccc(F)cc1)c1cccc(C(=O)c2ccc(F)cc2)n1 | > 30.9 µM | > 30.9 µM | –
N#CC(=C=[N-])[n+]1ccc(Cl)cc1 | – | – | inactive
N#C/C(=C\c1ccccc1Cl)c1ccccc1 | > 200 µM | 72.4 µM | –
CCc1c(C)[nH]c2c1/C(=N/N=C1\CCCc3[nH]c(C)c(CC)c31)CCC2 | – | – | inactive
Cc1ccc(-c2nn3c(-c4ccccc4)nnc3o2)cc1 | > 200 µM | 132 µM | –
COC1/C=C/OC2(C)Oc3c(C)c(O)c4c(O)c(c(/C=N/N5C(C)CN(Cc6ccc(C(C)(C)C)cc6)CC5C)c(O)c4c3C2=O)NC(=O)/C(C)=C\C=C\C(C)C(O)C(C)C(O)C(C)C(OC(C)=O)C1C (configuration not stated) | > 200 µM | 12.3 µM | –
Cc1cc2c3ccccc3nc2c2cc[nH]c(C)c12 | > 110 µM | 5.25 µM | –

SMILES | EC50 | IC50 | outcome
Cn1c(=O)c2c(nc(CCCCCc3nc4c(c(=O)n(C)c(=O)n4C)n3C)n2C)n(C)c1=O | > 200 µM | > 200 µM | –
C=C1C2CC[C@@]3(CC[C@@H]4[C@@]5(C)CCC[C@@]4(C=[N+](CCOC(C)=O)C5)[C@@H]3C2)[C@@H]1OC(C)=O | – | – | inactive
CCOc1ccc2nc(NC(=O)C(=O)C(c3cnc4ccccc4n3)[N+](=O)[O-])sc2c1 (configuration not stated) | > 155 µM | > 155 µM | –
O=C1C=C/C(=C/[C@H]2SSC=C[C@]23C=CC(=O)C3)C1 | > 200 µM | 2.63 µM | –
O=C(C=Nc1ccccc1C(=O)[O-])c1ccco1.O=C(C=Nc1ccccc1C(=O)[O-])c1ccco1.[Ni+2] | > 1.91 µM | > 1.91 µM | –
O=C1CCSSCCC(=O)NCCN1 | > 22.4 µM | > 22.4 µM | –
NC1(C(=O)O)CCCC1c1ccccc1 (configuration not stated) | > 6.61 µM | > 6.61 µM | –
CN1CCC23CCCC[C@H]2C1CC1=C3CC(=O)CC1 (some centres not stated) | > 692 µM | 263 µM | –
O=C(NOC(=O)c1ccc([N+](=O)[O-])cc1)c1ccc(Cl)cc1 | > 112 µM | > 112 µM | –
O=C1c2ccccc2C(=O)N1/N=C\c1ccc(Br)cc1 | > 21.9 µM | > 21.9 µM | –
OC1CC(c2ccccc2)Oc2ccccc21 (configuration not stated) | – | – | inactive
CCOC(=O)C(=Cc1ccccc1OC)C(=O)OCC | > 129 µM | 21.9 µM | –
CN(/N=C/c1ccccn1)C1=NCCCN1 | > 200 µM | > 200 µM | –
O=C(O)O | – | – | inactive
Cc1ccc([P+](Cc2ccc([N+](=O)[O-])cc2)(c2ccc(C)cc2)c2ccc(C)cc2)cc1 | > 200 µM | 3.63 µM | –
CCC1=C(C)c2cc3[n-]c(cc4nc(cc5[n-]c(cc1n2)c(C)c5CCC(=O)OC)C(CCC(=O)OC)=C4C)c(C)c3CC.[Cu+2] | – | – | inactive
COc1ccccc1NC(=O)CC(=O)N/N=C/c1ccc(N(CCC#N)S(=O)(=O)c2ccccc2)cc1 | > 182 µM | > 182 µM | –
O=c1cc2cc(O)[nH]c(=O)c2c(O)[nH]1 | – | – | inactive
CC12N=NN(c3ccc([N+](=O)[O-])cc3)C1(O)c1ccccc1C2=O (configuration not stated) | > 200 µM | > 200 µM | –
CCOC(=O)/C(C#N)=C/c1ccc(N(C)C)cc1 | > 77.6 µM | > 77.6 µM | –
Cc1cn(COCCSCc2ccccc2)c(=O)[nH]c1=O | 58.9 µM | > 200 µM | –
CN(NC(=O)/C(=C/C=C/c1ccccc1)NC(=O)c1ccccc1)C1=C(Cl)C(=O)[N+](c2ccccc2)=CC1 | > 200 µM | 35.5 µM | –

SMILES | EC50 | IC50 | outcome
CCOC(=O)C1CCCc2sc(N)c(C#N)c21 (configuration not stated) | > 200 µM | > 200 µM | –
O=C(CCl)Nc1ccc(SSc2ccc(NC(=O)CCl)cc2)cc1 | > 2 µM | 1.35 µM | –
C=CC[P@]1(=O)O[C@H](c2ccccc2)C(C)N1C(C)C (some centres not stated) | – | – | inactive
C[C@@H]1Cc2c(-c3cc(-c4cc(-c5c(O)cc(O)c6c5C[C@@H](C)N[C@@H]6C)c5ccccc5c4O)c(O)c4ccccc34)c(O)cc(O)c2[C@@H](C)N1 | 115 µM | > 200 µM | –
COP(=O)(OC)/C(C#N)=C/c1ccoc1 | > 1100 µM | > 1100 µM | –
O=C1C(Cl)C(c2ccccc2)N1n1cnc2ccccc2c1=O (configuration not stated) | > 79.4 µM | > 79.4 µM | –
ON1CCc2c([nH]c3ccccc23)C1c1ccccc1Br (configuration not stated) | – | – | inactive
COC(=O)c1sc2c(Cl)c(Cl)sc2c1Cl | > 50.1 µM | > 50.1 µM | –
CN1C/C(=C/c2ccc(N(C)C)cc2)C(=O)/C(=C/c2ccc(N(C)C)cc2)C1 | > 200 µM | > 200 µM | –
Oc1ccccc1SSc1ccccc1O | > 200 µM | 63.1 µM | –
O=C(O)CC(Cc1ccc2c(c1)OCO2)C(=O)O (configuration not stated) | > 200 µM | > 200 µM | –
CC1C2C=C(O)C(=O)C(C2=O)C1c1ccccc1 (configuration not stated) | > 741 µM | 141 µM | –
O=S1(=O)OC(c2ccc(O)c(Cl)c2)(c2ccc(O)c(Cl)c2)c2ccccc21 | – | – | inactive
N#Cc1nc(CCCCCN2C(=O)c3ccccc3C2=O)oc1N | > 200 µM | > 200 µM | –
NCCSSc1ccccc1C(=O)O | > 200 µM | > 200 µM | –
O=C1OC(c2ccccc2)c2ccsc2-n2cccc21 (configuration not stated) | > 200 µM | 123 µM | –
CCCCNC(=O)/N=C/c1c(O)c2ccccc2oc1=O | > 91.2 µM | 58.9 µM | –
Cc1noc2c1N=C(c1cccs1)CC(c1c(Cl)cccc1Cl)C2 (configuration not stated) | > 19.1 µM | > 19.1 µM | –
CCCCN(CCCC)CCCOC(=O)c1ccc2oc3ccc(C(=O)OCCCN(CCCC)CCCC)cc3c2c1 | > 38.9 µM | 10.5 µM | –
COC(=O)c1cc(C(=O)c2cc(C(=O)OC)c(OC)c(Br)c2C)c(C)c(Br)c1OC | > 200 µM | > 200 µM | –
O=C(O)CCC(=O)NCCNC(=O)CC(=O)O | > 1000 µM | > 1000 µM | –
O=C1[C@H]2ON(c3ccccc3)C(c3ccccc3F)[C@H]2C(=O)N1c1ccc(Cc2ccc(N3C(=O)[C@@H]4ON(c5ccccc5)C(c5ccccc5F)[C@@H]4C3=O)cc2)cc1 (some centres not stated) | > 9.12 µM | > 9.12 µM | –

SMILES | EC50 | IC50 | outcome
c1nc2cscc2c2cscc12 | – | – | inactive
CN(C)c1nc(N(C)C)nc(N2C(=O)c3ccccc3C2=O)n1 | > 100 µM | 0.389 µM | –
COc1cc2c(cc1O)[C@H]1COc3ccccc3[C@H]1O2 | > 93.3 µM | 4.9 µM | –
C[C@H]1CC[C@@H]2[C@@H](C)C[C@H]3[C@@H]4C(C)(C)OC(=O)[C@]4(C)C(=O)[C@@]23C1=O | > 200 µM | 77.6 µM | –
COc1cc(/C=C/C(=O)c2cc(Cl)cc(Cl)c2O)cc(OC)c1OC | > 200 µM | 2.04 µM | –
Cc1cc(=O)[nH]c(NNC(C#N)c2cccc(O)c2)n1 (configuration not stated) | > 347 µM | 123 µM | –
CC(=O)C1C(=O)C(=O)N(c2ccccc2C(C)C)C1=O (configuration not stated) | – | – | inactive
O=C1C2CC[C@@H]3C(=O)C(Cl)(Cl)[C@@H]3CCC2C1(Cl)Cl (some centres not stated) | > 200 µM | > 200 µM | –
Cc1cc(-c2ccc(N=Nc3ccc4c(S(=O)(=O)[O-])cc(S(=O)(=O)[O-])c(N)c4c3O)c(C)c2)ccc1N=Nc1ccc2c(S(=O)(=O)[O-])cc(S(=O)(=O)[O-])c(N)c2c1O.[Ga] | 1.12 µM | 38.9 µM | –
O=C(CCc1n[nH]c(=S)o1)Nc1ccc(Cl)cc1Cl | > 31.6 µM | > 31.6 µM | –
C[C@@H](CO)C1=C(O)c2ccc3c(c2C(=O)C1=O)CCCC3(C)C | > 200 µM | 15.1 µM | –
CCN(CC)CCOC(=O)OCCCCOC(=O)OCCN(CC)CC | > 200 µM | > 200 µM | –
COC(=O)C1=C(C(=O)OC)C2(C3=C(C)C(=O)c4ccccc43)CCC1(C)O2 (configuration not stated) | > 97.7 µM | 52.5 µM | –
O=c1oc2ccccc2cc1P(=O)(O)O | > 200 µM | 8.91 µM | –
COc1ccc(/C=C/C(=O)c2cc(C(C)(C)C)c(O)c(C(C)(C)C)c2)cc1 | > 10.2 µM | 5.01 µM | –
CCOC(=O)C1=NN(c2ccc(C)cc2)C2=CC(C)=NN(C)C(=S)N21 | > 200 µM | > 200 µM | –
COC(=O)CCC(=O)CC1CC(=O)C2CCCN12 (configuration not stated) | – | – | inactive
CCCCc1c2c(nc3c1CCc1cc4cc5c(nc4nc1-3)-c1nc3c(c(CCCC)c1CC5)CCC/C3=C\c1ccccc1)/C(=C/c1ccccc1)CCC2 | > 1.95 µM | > 1.95 µM | –
O=S1(=O)CS(=O)(=O)CS(=O)(=O)C1 | > 200 µM | 89.1 µM | –
COC1(OC)N=C(N)C2(C#N)/C(=N/N(C)C)CC(C)C12C#N (configuration not stated) | > 200 µM | > 200 µM | –
Cc1cn(COCCOS(C)(=O)=O)c(=O)[nH]c1=O | > 200 µM | > 200 µM | –
CC(=O)O[C@H]1CC[C@@]2(C)C(=CC[C@@H]3C2CC[C@]2(C)Nc4c(cnn4-c4ccccc4)CC32)C1 (some centres not stated) | – | – | inactive
